Experimental findings from PubChem BioAssay AID602272 (Broad Institute, 2012) are described below.

Structures are written as SMILES. Active and inactive are the calls of the source.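 How the source made its calls: active means every repeat run shows inhibition with half-maximal dose at most twice the top dose tested; inconclusive means repeat runs disagree on the call; inactive means every repeat run inactive.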

The target in one test is Glycogen synthase kinase-3 beta (Homo sapiens) (UniProt P49841). Description: GSK3beta kinase inhibition, dose response, selectivity assay for CDK5 tau phosphorylation inhibitor project, biochemical, ADP-Glo luminescence, GST-GSK3beta, dry powder (AID 602272). Conditions: recombinant GST-GSK3beta, 60 min.
Sequence of Glycogen synthase kinase-3 beta (Homo sapiens) (P49841 whole entry, looked up): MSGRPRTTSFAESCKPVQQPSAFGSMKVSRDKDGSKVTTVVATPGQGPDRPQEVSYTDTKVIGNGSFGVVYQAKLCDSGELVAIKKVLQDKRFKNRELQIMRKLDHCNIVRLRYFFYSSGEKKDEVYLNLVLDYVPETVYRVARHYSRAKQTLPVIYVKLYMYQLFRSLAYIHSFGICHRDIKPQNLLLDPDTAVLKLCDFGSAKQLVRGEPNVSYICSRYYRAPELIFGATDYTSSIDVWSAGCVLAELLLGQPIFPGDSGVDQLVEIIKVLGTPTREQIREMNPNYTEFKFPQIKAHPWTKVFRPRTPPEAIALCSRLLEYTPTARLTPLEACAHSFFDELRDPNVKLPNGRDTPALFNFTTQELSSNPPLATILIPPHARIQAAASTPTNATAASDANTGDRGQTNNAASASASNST
With `CC(C)(C)n1c(NC(=O)c2cccc(S(C)(=O)=O)c2)nc2ccccc21`, the AC50 was 18.9 µM.

Still in this test, the particulars now being: recombinant GST-GSK3beta, 60 min, at 30 µM (top of the series).
For `COCCC(=O)N1CCN(c2ccccn2)CC1`, the “activity change, negative = inhibition” value was “inactive”.

Turning to `O=C(c1ccc(Cl)cc1)N1CCN(c2ncccc2C(F)(F)F)CC1`, the “activity change, negative = inhibition” value was “inactive”.

As for `CCCCC(=O)N1CCN(c2ccccn2)CC1`, the “activity change, negative = inhibition” value was “inactive”.

Take `COc1cccnc1N1CCN(C(=O)c2ccc(Cl)cc2)CC1`: the “activity change, negative = inhibition” value was “inactive”.

Take `COc1cccc(C(=O)N2CCN(c3ccccn3)CC2)c1`: the “activity change, negative = inhibition” value is “inactive”.

Turning to `Cc1cccc(N2CCN(C(=O)c3ccc(Cl)cc3)CC2)n1`, the “activity change, negative = inhibition” value was “inactive”.

On to `O=C(c1ccc(F)cc1)N1CCN(c2ccccn2)CC1`, for which the “activity change, negative = inhibition” value is “inactive”.

`COc1ccnc(N2CCN(C(=O)c3ccc(Cl)cc3)CC2)c1`: the “activity change, negative = inhibition” value is “inactive”.

For the molecule `CCn1c(NC(=O)c2cccc(S(=O)(=O)NC)c2)nc2ccccc21`, the “activity change, negative = inhibition” value was “inactive”.

Regarding `O=C(c1ccccc1Cl)N1CCN(c2ccccn2)CC1`, the “activity change, negative = inhibition” value was “inactive”.

Take `CCOc1cc(C(=O)N2CCN(c3ccccn3)CC2)cc(OCC)c1OCC`: the “activity change, negative = inhibition” value was “inactive”.

As to `N#Cc1ccc(N2CCN(C(=O)c3ccc(Cl)cc3)CC2)nc1`, the “activity change, negative = inhibition” value is “inactive”.

Consider `Cc1ccnc(N2CCN(C(=O)c3ccc(Cl)cc3)CC2)c1`, for which the “activity change, negative = inhibition” value was “inactive”.

Take `c1ccc(N2CCNCC2)nc1`: the “activity change, negative = inhibition” value is “inactive”.

As for `CCCn1c(NC(=O)c2cccc(S(=O)(=O)N(C)C)c2)nc2ccccc21`, the “activity change, negative = inhibition” value is “inactive”.

With `CCCn1c(NC(=O)c2ccc(OC)c(S(=O)(=O)N3CCCC3)c2)nc2ccccc21`, the “activity change, negative = inhibition” value is “inactive”.

For `CCCn1c(NC(=O)c2ccc(Cl)c(S(=O)(=O)N3CCCC3)c2)nc2ccccc21`, the “activity change, negative = inhibition” value is “inactive”.

Consider `O=C(c1ccccc1)N1CCN(c2ccccn2)CC1`, for which the “activity change, negative = inhibition” value was “inactive”.

Regarding `O=C(C1CCCCC1)N1CCN(c2ccccn2)CC1`, the “activity change, negative = inhibition” value was “inactive”.

As to `COc1cc(C(=O)N2CCN(c3ccccn3)CC2)cc(OC)c1OC`, the “activity change, negative = inhibition” value is “inactive”.

As for `O=C(c1ccc(Cl)cc1)N1CCN(c2ccc(C(F)(F)F)cn2)CC1`, the “activity change, negative = inhibition” value was “inactive”.

Turning to `N#Cc1cccnc1N1CCN(C(=O)c2ccc(Cl)cc2)CC1`, the “activity change, negative = inhibition” value is “inactive”.

As to `O=C(c1cccc(Cl)c1)N1CCN(c2ccccn2)CC1`, the “activity change, negative = inhibition” value was “inactive”.

Take `CCCn1c(NC(=O)c2cccc(S(=O)(=O)N3CCCCC3)c2)nc2ccccc21`: the “activity change, negative = inhibition” value is “inactive”.

For `CCCn1c(NC(=O)c2cccc(S(=O)(=O)N(CC)CC)c2)nc2ccccc21`, the “activity change, negative = inhibition” value is “inactive”.

Turning to `O=C(c1ccc(Cl)cc1)N1CCN(c2ccccn2)CC1`, the “activity change, negative = inhibition” value is “inactive”.

As to `CC(C)C(=O)N1CCN(c2ccccn2)CC1`, the “activity change, negative = inhibition” value was “inactive”.

Turning to `N#Cc1ccc(C(=O)N2CCN(c3ccccn3)CC2)cc1`, the “activity change, negative = inhibition” value is “inactive”.

Regarding `O=C(c1ccc(Cl)cc1)N1CCN(c2cccc(C(F)(F)F)n2)CC1`, the “activity change, negative = inhibition” value is “inactive”.

As to `COc1cc(C(=O)N2CCN(c3ccccc3)CC2)cc(OC)c1OC`, the “activity change, negative = inhibition” value is “inactive”.

For `Cc1ccc(N2CCN(C(=O)c3ccc(Cl)cc3)CC2)nc1`, the “activity change, negative = inhibition” value is “inactive”.

On to `COc1ccc(C(=O)N2CCN(c3ccccn3)CC2)cc1`, for which the “activity change, negative = inhibition” value was “inactive”.

Turning to `Cc1ccc(C(=O)N2CCN(c3ccccn3)CC2)cc1`, the “activity change, negative = inhibition” value was “inactive”.
